Reference: US9358281B2, “Methods, agents and peptides for inducing an innate immune response in HIV vaccination” (New York University, priority 2009, dated 2016)

Test system: monocyte-derived dendritic cells (MDDC)
Type: cell-based, human
Details: added during the first 24 hours

SMILES: Cc1cn([C@H]2C[C@H](N=[N+]=[N-])[C@@H](CO)O2)c(=O)[nH]c1=O [AZT, Zidovudine]
- effect on transduction efficiency: inhibited transduction efficiency

SMILES: Cc1nnc(C(=O)NC(C)(C)c2nc(C(=O)NCc3ccc(F)cc3)c(O)c(=O)n2C)o1 [RAL, Raltegravir]
- effect on transduction efficiency: inhibited transduction efficiency
